Measurements published in US8192962B2, “Processes for detecting toxic substances” (Daikin Industries, Ltd., priority 2001, dated 2012).

Test system: DNA repair protein genes
Test: DNA chip mRNA expression in yeast, DNA repair protein genes (Table 3)
Type: cell-based, Saccharomyces cerevisiae S288C
Settings: incubated two hours, concentrations as in the 1st table
How it was run: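 Whole-genome yeast DNA chip hybridization (65° C., >12 h) of Cy-labeled cDNA from S288C cells exposed 2 h at 25° C. to a sub-lethal toxicant dose in YPD; value is intensity relative to chemical-free control.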

CCCCCCCCCCCCc1ccc(S(=O)(=O)[O-])cc1.[Na+] [(17), sodium dodecylbenzosulfonate]
The level of expressed mRNA in the presence of chemical substance/The level of expressed mRNA in the absence of chemical substance (yeast gene YAL015C): 1.1 | The level of expressed mRNA in the presence of chemical substance/The level of expressed mRNA in the absence of chemical substance (yeast gene YAR007C): 0.8 | The level of expressed mRNA in the presence of chemical substance/The level of expressed mRNA in the absence of chemical substance (yeast gene YBL019W): 0.8 | The level of expressed mRNA in the presence of chemical substance/The level of expressed mRNA in the absence of chemical substance (yeast gene YBR073W): 0.7 | The level of expressed mRNA in the presence of chemical substance/The level of expressed mRNA in the absence of chemical substance (yeast gene YBR272C): 1.1 | The level of expressed mRNA in the presence of chemical substance/The level of expressed mRNA in the absence of chemical substance (yeast gene YCR014C): 1.0 | The level of expressed mRNA in the presence of chemical substance/The level of expressed mRNA in the absence of chemical substance (yeast gene YDL017W): 0.8 | The level of expressed mRNA in the presence of chemical substance/The level of expressed mRNA in the absence of chemical substance (yeast gene YDL059C): 0.8 | The level of expressed mRNA in the presence of chemical substance/The level of expressed mRNA in the absence of chemical substance (yeast gene YDL200C): 0.9 | The level of expressed mRNA in the presence of chemical substance/The level of expressed mRNA in the absence of chemical substance (yeast gene YDR054C): 0.8 | The level of expressed mRNA in the presence of chemical substance/The level of expressed mRNA in the absence of chemical substance (yeast gene YDR369C): 0.8 | The level of expressed mRNA in the presence of chemical substance/The level of expressed mRNA in the absence of chemical substance (yeast gene YEL019C): 0.8 | The level of expressed mRNA in the presence of chemical substance/The level of expressed mRNA in the absence of chemical substance (yeast gene YEL037C): 1.0 | The level of expressed mRNA in the presence of chemical substance/The level of expressed mRNA in the absence of chemical substance (yeast gene YER162C): 1.2 | The level of expressed mRNA in the presence of chemical substance/The level of expressed mRNA in the absence of chemical substance (yeast gene YFL014W): 1.5 | The level of expressed mRNA in the presence of chemical substance/The level of expressed mRNA in the absence of chemical substance (yeast gene YGL058W): 1.1 | The level of expressed mRNA in the presence of chemical substance/The level of expressed mRNA in the absence of chemical substance (yeast gene YGL091C): 1.4 | The level of expressed mRNA in the presence of chemical substance/The level of expressed mRNA in the absence of chemical substance (yeast gene YGL127C): 1.0 | The level of expressed mRNA in the presence of chemical substance/The level of expressed mRNA in the absence of chemical substance (yeast gene YGL163C): 0.9 | The level of expressed mRNA in the presence of chemical substance/The level of expressed mRNA in the absence of chemical substance (yeast gene YGL249W): 1.0 | The level of expressed mRNA in the presence of chemical substance/The level of expressed mRNA in the absence of chemical substance (yeast gene YGR180C): 1.0 | The level of expressed mRNA in the presence of chemical substance/The level of expressed mRNA in the absence of chemical substance (yeast gene YGR231C): 1.0 | The level of expressed mRNA in the presence of chemical substance/The level of expressed mRNA in the absence of chemical substance (yeast gene YGR258C): 1.0 | The level of expressed mRNA in the presence of chemical substance/The level of expressed mRNA in the absence of chemical substance (yeast gene YHR164C): 0.8 | The level of expressed mRNA in the presence of chemical substance/The level of expressed mRNA in the absence of chemical substance (yeast gene YIL036W): 1.1 | The level of expressed mRNA in the presence of chemical substance/The level of expressed mRNA in the absence of chemical substance (yeast gene YIL072W): 1.0 | The level of expressed mRNA in the presence of chemical substance/The level of expressed mRNA in the absence of chemical substance (yeast gene YIL143C): 0.9 | The level of expressed mRNA in the presence of chemical substance/The level of expressed mRNA in the absence of chemical substance (yeast gene YIL153W): 0.9 | The level of expressed mRNA in the presence of chemical substance/The level of expressed mRNA in the absence of chemical substance (yeast gene YIR002C): 1.1 | The level of expressed mRNA in the presence of chemical substance/The level of expressed mRNA in the absence of chemical substance (yeast gene YJL026W): 1.4 | The level of expressed mRNA in the presence of chemical substance/The level of expressed mRNA in the absence of chemical substance (yeast gene YJR046W): 0.7 | The level of expressed mRNA in the presence of chemical substance/The level of expressed mRNA in the absence of chemical substance (yeast gene YJR052W): 1.0 | The level of expressed mRNA in the presence of chemical substance/The level of expressed mRNA in the absence of chemical substance (yeast gene YKL145W): 1.1 | The level of expressed mRNA in the presence of chemical substance/The level of expressed mRNA in the absence of chemical substance (yeast gene YLR103C): 1.1 | The level of expressed mRNA in the presence of chemical substance/The level of expressed mRNA in the absence of chemical substance (yeast gene YLR233C): 1.0 | The level of expressed mRNA in the presence of chemical substance/The level of expressed mRNA in the absence of chemical substance (yeast gene YLR288C): 1.2 | The level of expressed mRNA in the presence of chemical substance/The level of expressed mRNA in the absence of chemical substance (yeast gene YML032C): 1.0 | The level of expressed mRNA in the presence of chemical substance/The level of expressed mRNA in the absence of chemical substance (yeast gene YML058W): 1.3 | The level of expressed mRNA in the presence of chemical substance/The level of expressed mRNA in the absence of chemical substance (yeast gene YMR035W): 2.2 | The level of expressed mRNA in the presence of chemical substance/The level of expressed mRNA in the absence of chemical substance (yeast gene YMR072W): 0.9 | The level of expressed mRNA in the presence of chemical substance/The level of expressed mRNA in the absence of chemical substance (yeast gene YMR096W): 2.2 | The level of expressed mRNA in the presence of chemical substance/The level of expressed mRNA in the absence of chemical substance (yeast gene YMR284W): 1.1 | The level of expressed mRNA in the presence of chemical substance/The level of expressed mRNA in the absence of chemical substance (yeast gene YNL213C): 0.9 | The level of expressed mRNA in the presence of chemical substance/The level of expressed mRNA in the absence of chemical substance (yeast gene YNL250W): 1.0 | The level of expressed mRNA in the presence of chemical substance/The level of expressed mRNA in the absence of chemical substance (yeast gene YNL261W): 0.8 | The level of expressed mRNA in the presence of chemical substance/The level of expressed mRNA in the absence of chemical substance (yeast gene YNL312W): 1.2 | The level of expressed mRNA in the presence of chemical substance/The level of expressed mRNA in the absence of chemical substance (yeast gene YOL043C): 1.0 | The level of expressed mRNA in the presence of chemical substance/The level of expressed mRNA in the absence of chemical substance (yeast gene YOR005C): 1.1 | The level of expressed mRNA in the presence of chemical substance/The level of expressed mRNA in the absence of chemical substance (yeast gene YOR386W): 2.1 | The level of expressed mRNA in the presence of chemical substance/The level of expressed mRNA in the absence of chemical substance (yeast gene YPL022W): 0.9 | The level of expressed mRNA in the presence of chemical substance/The level of expressed mRNA in the absence of chemical substance (yeast gene YPL164C): 1.0 | The level of expressed mRNA in the presence of chemical substance/The level of expressed mRNA in the absence of chemical substance (yeast gene YPL194W): 1.0 | The level of expressed mRNA in the presence of chemical substance/The level of expressed mRNA in the absence of chemical substance (yeast gene YPR025C): 1.1
